Measured values published in PubChem BioAssay (NCI).
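Five concentrations, 48 hours, 96-well plates. The concentration for full growth arrest is given as TGI.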

What was measured:
Experiment in all cases: DTP human tumour cell line panel, 48 h
COLO 205 colon = tested on: COLO 205 colon
M14 melanoma = tested on: M14 melanoma
MDA-MB-435 = tested on: MDA-MB-435
RPMI-8226 leukemia = tested on: RPMI-8226 leukemia
K-562 leukemia = tested on: K-562 leukemia
SW-620 colon = tested on: SW-620 colon
TK-10 renal = tested on: TK-10 renal
NCI-H226 lung = tested on: NCI-H226 lung
OVCAR-5 ovarian = tested on: OVCAR-5 ovarian
HCT-116 colon = tested on: HCT-116 colon

| SMILES | TGI (COLO 205 colon) [µM] | TGI (M14 melanoma) [µM] | TGI (MDA-MB-435) [µM] | TGI (RPMI-8226 leukemia) [µM] | TGI (K-562 leukemia) [µM] | TGI (SW-620 colon) [µM] | TGI (TK-10 renal) [µM] | TGI (NCI-H226 lung) [µM] | TGI (OVCAR-5 ovarian) [µM] | TGI (HCT-116 colon) [µM] |
| --- | --- | --- | --- | --- | --- | --- | --- | --- | --- | --- |
| CCOC(=O)c1c(N)n(-c2ccccc2)c(=O)n(-c2ccccc2)c1=O | > 100 | > 100 | > 100 | > 100 | > 100 | > 100 | > 100 | > 100 | > 100 | – |
| CC(C)=CCC[C@@H](C)/C=C/C=C(\C)C(=O)CC[C@@H]1CC[N@+]2(C)CCCC[C@H]12 | > 100 | > 100 | > 100 | > 100 | > 100 | > 100 | > 100 | > 100 | > 100 | > 100 |
| C#C[C@]1(O)CC[C@H]2[C@@H]3CCC4=C/C(=N/OCCN(C)C)CC[C@]4(C)[C@H]3CC[C@@]21C | > 100 | 35.2 | 32.2 | > 100 | > 100 | > 100 | > 100 | 85.8 | > 100 | > 100 |
| N#CC(C(=O)c1cccnc1Cl)c1nc2cc(C(F)(F)F)ccc2s1 (stereo not drawn) | > 100 | > 100 | > 100 | > 100 | > 100 | > 100 | > 100 | > 100 | > 100 | 90.3 |
| COC(=O)C1CCC(=O)N1CN(C(C)=O)c1ccccc1Cl (stereo not drawn) | > 100 | > 100 | > 100 | > 100 | – | > 100 | > 100 | > 100 | > 100 | > 100 |
| NC1=CN(CCCO)C2=N/C(=C\c3ccccc3)C(=O)N12 | > 100 | > 100 | > 100 | > 100 | > 100 | > 100 | > 100 | > 100 | > 100 | > 100 |
| CCc1n[nH]c(=O)n1/N=C/c1ccccc1O | > 100 | > 100 | > 100 | > 100 | > 100 | > 100 | > 100 | – | > 100 | > 100 |
| O=c1cc(N=Nc2ccc(Br)cc2)[nH]c(=S)[nH]1 | 45.1 | 29.1 | 38.1 | 57.9 | 54.4 | 64.5 | 32.1 | > 100 | > 100 | 35.6 |
| O=C1/C(=C\Oc2ccc(F)cc2)N2CCC1CC2 | > 100 | > 100 | > 100 | > 100 | > 100 | – | > 100 | > 100 | > 100 | > 100 |
| COc1cc(OC)c2c(c1)OC(c1ccccc1)CC2=O (stereo not drawn) | > 10 | > 10 | > 10 | > 10 | > 10 | > 10 | > 10 | > 10 | > 10 | > 10 |
| COc1ccc(C2N(c3ccc(F)cc3)C(=O)N3C(c4ccc(OC)cc4)N(c4ccc(F)cc4)C(=O)N23)cc1 (stereo not drawn) | > 100 | > 100 | > 100 | > 100 | – | > 100 | > 100 | – | > 100 | > 100 |
| Oc1ccc(O)c(CNc2ccc(C(O)C(F)(F)F)cc2)c1 (stereo not drawn) | 37.8 | 35.5 | 47.4 | – | > 100 | > 100 | 33.1 | 84.1 | 40.8 | 32.2 |
| NC(Cc1ccc(OCc2ccccc2)cn1)C(=O)O (stereo not drawn) | > 100 | – | > 100 | > 100 | > 100 | > 100 | > 100 | > 100 | > 100 | > 100 |
| COC(=O)C(NC(=O)C(CC(=O)OC(C)(C)C)NC(=O)OC(C)(C)C)C(O)c1ccccc1 (stereo not drawn) | > 100 | > 100 | > 100 | > 100 | > 100 | > 100 | > 100 | > 100 | > 100 | > 100 |
| S=c1[nH]nc(CNc2ccc(-c3n[nH]c(=S)n3-c3ccc(Cl)cc3)cc2)n1-c1ccc(Cl)cc1 | 38.9 | 68.1 | > 100 | 78 | > 100 | > 100 | > 100 | > 100 | 46.4 | 32.8 |
| Cc1ccc(NC(Nc2ccc(C)cc2C)=C(C(Cl)=C(Cl)Cl)[N+](=O)[O-])c(C)c1 | 32 | 21.3 | 17.2 | 52.8 | 24.6 | 33.1 | 33 | 32.3 | – | 26.7 |
| O=C1C[C@H](c2ccccc2)O[C@@H](c2ccccc2)C1 | > 100 | > 100 | > 100 | > 100 | 72.3 | > 100 | – | > 100 | > 100 | > 100 |
| Cc1nc(N)c(N2CCN(C(=O)O)CC2)c(=O)[nH]1 | > 100 | > 100 | > 100 | > 100 | > 100 | > 100 | > 100 | > 100 | > 100 | > 100 |
| O=c1oc2ccccc2nc1/C=C(\O)c1ccc(Cl)cc1 | > 100 | > 100 | > 100 | – | > 100 | – | > 100 | > 100 | > 100 | > 100 |
| Cc1cc(S(=O)(=O)Nc2n[nH]c(Nc3ccc(Cl)cc3)n2)c(S)cc1Cl | > 100 | > 100 | > 100 | > 100 | > 100 | > 100 | > 100 | > 100 | > 100 | > 100 |
| COc1ccc(N=NC(=O)NC(Cc2ccccc2)C(=O)O)cc1 (stereo not drawn) | > 100 | > 100 | > 100 | > 100 | > 100 | > 100 | > 100 | > 100 | > 100 | > 100 |
| CC(Nc1ncc2c(n1)-c1ccccc1OC2)C(=O)O (stereo not drawn) | > 100 | > 100 | > 100 | > 100 | > 100 | > 100 | > 100 | > 100 | > 100 | > 100 |
